Measurements as given in patent US8968700B2, “Imaging of protease activity in live cells using activity based probes” (The Board of Trustees of the Leland Stanford Junior …, priority 2005, dated 2015).

Legend:
[1] = biological target: T1, bovine cathepsin B (Bos taurus, UniProt P07688); assay: Kinetics of inhibition, progress curve method (kass); format: biochemical; details: bovine cathepsin B 1 nM; substrate Z-RR-AMC 10 μM; pseudo-first order
Protocol: (§1) The kinetics of inhibition was determined by progress curve method under pseudo-first order conditions with at least 10-fold molar excess of inhibitor. Recorded progress curves were analyzed by non-linear regression according to the following equation (Ref 36).
(§2) [P]=vz(1−e^−k·t)/k where [P] is the product, vz is the velocity at time zero and k is the pseudo first order rate constant. Apparent rate constant (kapp) was determined from the slope of plot k versus [I]. Due to irreversible and competitive mechanism of inhibition, kapp was converted to the association constant (kass) using the equation below: kass=kapp(1+[S]/KM)
(§3) Activity of human cathepsin L was measured using the fluorogenic substrate Z-FRAMC37 (Bachem, USA) (Km=7.1 μM) and cathepsin B was assayed against the fluorogenic substrate Z-RR-AMC38 (Bachem, USA) (Km=114 μM). Concentration of substrates during the measurement was 10 μM. Cathepsins B and L (1 nM final concentrations) were incubated with inhibitor concentrations, ranging from 10 to 2000 nM, in the presence of 10 μM of appropriate substrate. Total volume during the measurement was 100 μl. Increase of fluorescence (370 nm excitation, […] emission) was continuously monitored for 30 minutes by Spectramax M5 spectrofluorimeter.
(§4) (Molecular Devices, USA) and inhibition curves were recorded. DMSO concentration during all measurements was 3.5%.

[2] = biological target: T2, human cathepsin L (Homo sapiens, UniProt P07711); assay: as above; format: biochemical; details: human cathepsin L 1 nM; substrate Z-FR-AMC 10 μM; pseudo-first order
Protocol: as §1, §2, §3, §4

[3] = system: MDA-MB 231 tumors; assay: In vivo imaging of cysteine protease activity in tumor-bearing mice (IVIS 200); set-up: species or system mouse; details: tail vein injection
Protocol: Three weeks prior to imaging, MDA-MB 435 or MDA-MB 231 cells (3×10^6 cell per site) were subcutaneously injected into the back left and right side of a Balb-c nude mouse. As is known in the literature, MDA-MB-435, expresses ALP56 (aspartic-like protease 56 kDa), which has homology to aspartic proteases, such as cathepsin D. Similarly, a trypsin-like protease secreted from MDA MB-231 cells can promote cell migration through autocrine activation of PAR-2. GB123 (1 μg) dissolved in DMSO/PBS was injected via the tail vein. Fluorescent images of living mice taken using an IVIS 200 imaging system equipped with a Cy5.5 filter at various time points after GB123 injection show localization of the probe to a tumor site. […] Labeling of active cysteine proteases in cell lines used to generate the tumors was carried out on SDS-PAGE. Intact monolayers of MDA MB-231 or MDA MB-435 cells were either pre-treated with the general papain family protease inhibitor JPM-OEt (50 μM) or with control DMSO (0.1%) for one hour and labeled by addition of GB123 (1 μM) to culture media for four hours. Crude detergent lysates were normalized for total protein, separated by SDS-PAGE, and visualized by scanning of the gel with a Typhoon flatbed laser scanner. […] Plotted values are expressed as percentage of fluorescence measured relative to the signal observed at two hours post injection of probe.

[4] = system: protease species in tumor lysates; assay: Biochemical analysis of in vivo labeled tumors, SDS-PAGE of lysates; set-up: species or system mouse; details: FIG. 6a
Description: Tumors from mice described in Example 7 were lysed in a detergent buffer. Crude lysates were normalized for total protein, separated by SDS-PAGE, and visualized by scanning of the gel with a Typhoon flatbed laser scanner, fluorescent images of corresponding mice are shown below gel images, where spotted areas indicate fluorescent readings, as obtained in Example 7. […] Lysates from a C2C12/ras tumor locally injected with DMSO/PBS were immuno precipitated using anti cathepsin B or cathepsin L antibodies as indicated. Samples were separated by SDS-PAGE, and visualized by scanning of the gel with a Typhoon flatbed laser scanner, as shown in FIG. 6b. The antibodies precipitated cat B and cat L complexes, indicating specific labeling of these proteases.

[5] = system: tumor tissues; assay: Ex vivo imaging of tumor tissue cryo-sections; format: in vivo, mouse; details: 24 hours after probe injection, Cy5 channel
Protocol: Tumors from mice injected with either GB123 or GB125 were extracted 24 hours after probe injection and molded in OCT placed in tert-butanol cooled with liquid nitrogen. Cryo-sections (10 μm) of tumors were mounted with Fluoromount and imaged using a Zeiss 200M fluorescent microscope using a 40× lens and a Cy5 filter.

[6] = system: MDA MB-231 or MDA MB-435 cells; assay: Labeling of active cysteine proteases in intact monolayers of tumor cell lines, SDS-PAGE; format: cell-based; details: 1 μM, four hours
Protocol: GB123 (1 μg) dissolved in DMSO/PBS was injected via the tail vein. Fluorescent images of living mice taken using an IVIS 200 imaging system equipped with a Cy5.5 filter at various time points after GB123 injection show localization of the probe to a tumor site. […] Labeling of active cysteine proteases in cell lines used to generate the tumors was carried out on SDS-PAGE. Intact monolayers of MDA MB-231 or MDA MB-435 cells were either pre-treated with the general papain family protease inhibitor JPM-OEt (50 μM) or with control DMSO (0.1%) for one hour and labeled by addition of GB123 (1 μM) to culture media for four hours. Crude detergent lysates were normalized for total protein, separated by SDS-PAGE, and visualized by scanning of the gel with a Typhoon flatbed laser scanner. […] All of these specific activities were sensitive to pre-treatment with the general inhibitor JPM-OEt. […] Plotted values are expressed as percentage of fluorescence measured relative to the signal observed at two hours post injection of probe.

[7] = system: MDA-MB 231 or C2C12/ras tumors; assay: In vivo labeling of live mice with active probe and control inactive probe; set-up: species or system mouse
Protocol: Two to four weeks prior to imaging MDA-MB 231 or C2C12/ras cells (a myoblast cell line wherein ras blocks differentiation) at 2×10^6 cell per spot were injected subcutaneous to the back of Balb-c nude mice.
Mice bearing tumors of similar size were injected intravenous via the tail vein with a DMSO/PBS solution of GB123 or GB125 (0.8-1.1 μg/gr mice). DMSO/PBS was locally injected directly into tumors in indicated mice, 15 minutes prior to probe injection. Fluorescent intensity as photons per second per centimeter square per steradian (p/s/cm^2/sr) was recorded from living mice, (data not shown). Images were taken at various time points (e.g., 1 min., 5 hrs. and 22 hrs.) after probe injection using an IVIS 200 imaging system equipped with a Cy5.5 filter.

[8] = biological target: T2, human cathepsin L; assay: Recombinant cathepsin labeling, SDS-PAGE fluorescent scan; format: biochemical; set-up: gift from Dr. V. Turk, Jozef Stefan Institute, Slovenia; details: labeling by GB111 and GB117
Protocol: (§5) 0.7 μg recombinant human Cathepsin L (a generous gift from Dr. V. Turk Jozef, Stefan institute Slovenia) or 0.4 μg bovine Cathepsin B (Sigma) in reaction buffer (50 mM acetate, 2 mM DTT and 5 mM MgCl2, pH 5.5) were treated with 25 μM JPM-OEt for 30 min (indicated samples) at room temperature. Increasing concentrations of GB111, GB117, were added to appropriate samples for 30 min. The reaction was stopped by adding sample buffer X4 (40% glycerol, 0.2M Tris/HCl 6.8, 20% β-mercaptoethanol, 12% SDS and 0.4 mg/ml bromophenol blue). Half of the sample was separated on a 12% SDS gel and scanned by a Typhoon laser flatbed scanner at 532/580.

[9] = system: MCF-10A cells; assay: Imaging in three-dimensional cell culture on Cultrex, confocal microscopy; format: cell-based; details: JPM-OEt 50 μM
Protocol: In these experiments, reconstituted basement membrane, Cultrex (Trevigen) was mixed with 1 μM GB111 or GB117 with or without JPM-OEt (50 μM). MCF-10A cells were grown three-dimensional cultures on Cultrex containing probes with or without inhibitor for 3 days then imaged by confocal microscopy using a water immersion lens (Zeiss).
MCF-10A cells were grown in 3D culture on reconstituted basement membrane extracted from an EHS mouse sarcoma (Cultrex from Trevigen) as previously described 35. GB117 or GB111 was added to Cultrex (1 μM final concentration) upon cell seeding and day 3 structures were imaged as described below. Day 8 structures grown Cultrex without probes were treated with 1 μM GB111 for 3 hours in assay media (culture media with 2% horse serum and 5 ng/mL EGF). Cells were washed overnight in assay media, fixed and imaged as described below.

[10] = biological target: T1, bovine cathepsin B; assay: Recombinant cathepsin labeling, SDS-PAGE fluorescent scan; format: biochemical; details: labeling by GB111 and GB117
Protocol: as §5

[11] = system: NIH-3T3 cells; assay: Imaging protease activity in live cells, fluorescence microscopy; format: cell-based, mouse; details: JPM-OEt 50 μM, 1 hour
Protocol: In these experiments (data not shown), cultures of NIH-3T3 cells were either pre-treated with the general papain family protease inhibitor JPM-OEt (50 μM) or with control DMSO (0.1%) for 1 hour and labeled by addition of GB111 or GB117 (1 μM) to growth media for 4-5 hours. The acidotropic lysosomal marker LysoTracker (which produces a green color) was added and cells were imaged using an inverted fluorescent microscope (Nikon). Cells were also treated and analyzed after being washed for 3 hours in growth media containing JPM-OEt (50 μM) or DMSO (0.1%) prior to imaging. As a result, red fluorescence—indicating protease activity, green fluorescence—indicating lysosomal compartments, and yellow fluorescence resulting from overlap in green and red signals was observed.
NIH 3T3 cells (165,000 cells/well) were seeded on glass cover slips in six-well tissue culture plates containing growth medium 1 day before treatment. Cells were either pretreated with the general papain family protease inhibitor JPM-OEt (50 μM) or with control DMSO (0.1%) for 1 hour. Cells were labeled by addition of GB111 or GB117 (1 μM) to growth media at pH 7.4 for 4-5 hours. Cells were transferred to growth media without phenol red. LysoTracker (50 nM final concentration) was added minutes before cells were imaged using an inverted fluorescent microscope (Nikon Diaphot-300 microscope with the 60 (NA 1.4) objective). […]

[12] = system: endogenous cathepsin activity; assay: In vivo whole animal imaging with spectral imager; set-up: species or system mouse; details: 100 mg/kg IP 2 hours prior to GB117
Description: Photographs illustrating fluorescence imaging of endogenous cathepsin activity in live mice using the quenched activity-based probe GB117 were obtained with the CR1-Maestro™ Spectral imager, and comparisons were made between mice (a) with no probe, (b) with GB117 and (c) with GB117 plus the general cathepsin inhibitor JPM-OEt.
Areas of more intense labeling in the center of the animal (likely labeling of the liver, an organ with high cathepsin activity) were seen.
This work utilized a spectral imager (CRI Maestro) at the small animal imaging facility at Stanford. This new technology makes it possible to acquire the entire spectrum of light emission. Following spectral acquisition, the wavelengths specific to the injected probe can be defined, and autofluorescence subtracted. […] Techniques for spectral imaging in connection with multiple chromosome labels (“chromosome painting”) are known and may be adapted for use in vivo. See U.S. Pat. Nos. 5,936,731 and 6,690,817. A spectral imager is capable of collecting spatial (imaging) information as well as spectral information at every pixel in the image. This 3 dimensional data set enables the detailed study of both absorptive and fluorescent, histological and cellular material. […]

T2 sequence (P07711 114-333): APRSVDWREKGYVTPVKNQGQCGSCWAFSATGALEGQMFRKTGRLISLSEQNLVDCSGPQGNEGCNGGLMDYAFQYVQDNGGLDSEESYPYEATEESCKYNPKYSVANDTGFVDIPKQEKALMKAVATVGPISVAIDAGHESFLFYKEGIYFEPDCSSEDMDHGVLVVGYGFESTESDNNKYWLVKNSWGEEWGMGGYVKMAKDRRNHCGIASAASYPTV

Compound: Cc1cccc(C)c1C(=O)OCC(=O)[C@H](CCCCN)NC(=O)[C@H](Cc1ccccc1)NC(=O)OCc1ccccc1 [GB111-NH2]
- kass (inhibition rate constant) [1]: 38500 ± 7700 M^−1s^1
- kass (inhibition rate constant) [2]: 296400 ± 18100 M^−1s^1

Compound: CCN1C(=CC=CC=CC2=[N+](CCCCCC(=O)NCCCC[C@H](NC(=O)[C@H](Cc3ccccc3)NC(=O)OCc3ccccc3)C(=O)COC(=O)c3c(C)cccc3C)c3ccc(S(=O)(=O)O)cc3C2(C)C)C(C)(C)c2cc(S(=O)(=O)O)ccc21 [GB123]
- fluorescent signal in tumor [3]: accumulation of fluorescent signal was observed over time
- fluorescence of labeled bands in tumor lysates [4]: significant fluorescence
- fluorescent signal in tumor cryo-sections [5]: accumulation of the specific fluorescent signal
- labeling of cysteine protease activities in cell lines [6]: increased labeling of a number of cysteine protease activities in MDA-MB 231 relative to the MDA-MB 435 cells
- fluorescence after 1 min. ([7]; MDA-MB-231 injected mice): showed fluorescence
- retention of observable signal ([7]; intravenous via tail vein, 0.8-1.1 μg/gr): at least 22 hrs

Compound: JPM-OEt
- effect of inhibitor pre-treatment on probe labeling [8]: specifically competed
- effect of inhibitor on GB117 staining in 3D culture [9]: completely blocked
- effect of inhibitor pre-treatment on probe labeling [10]: specifically competed
- effect of inhibitor pre-treatment on GB117 labeling pattern [11]: blocked
- effect of inhibitor pre-treatment on GB117 signal in live mouse [12]: significantly reduced fluorescent signal in the entire animal
